Results: publication PMC6199744, “Development of Chemical Proteomics for the Folateome and Analysis of the Kinetoplastid Folateome” (ACS Infectious Diseases, 2018)
Like-named read-outs stand apart in the source and are kept apart here.

How the values were obtained:
Format in all cases: binding
[1] = molecular target: T1, HeLa cell extract proteins (Homo sapiens, UniProt O75533)
T1 construct: endogenous in cells; host or cells: HeLa cell extract

[2] = molecular target: T2, HeLa cell extract proteins (Homo sapiens, UniProt P20671)
T2 construct: endogenous in cells; host or cells: HeLa cell extract

[3] = molecular target: T3, HeLa cell extract proteins (Homo sapiens, UniProt Q15370)
T3 construct: endogenous in cells; host or cells: HeLa cell extract
T3 sequence (Q15370 whole entry): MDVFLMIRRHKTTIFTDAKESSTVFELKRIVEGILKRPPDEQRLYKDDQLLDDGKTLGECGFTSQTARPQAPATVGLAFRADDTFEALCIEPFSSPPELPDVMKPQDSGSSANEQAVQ

[4] = molecular target: T4, HeLa cell extract proteins (Homo sapiens, UniProt O14979)
T4 construct: endogenous in cells; host or cells: HeLa cell extract
T4 sequence (O14979 1-420): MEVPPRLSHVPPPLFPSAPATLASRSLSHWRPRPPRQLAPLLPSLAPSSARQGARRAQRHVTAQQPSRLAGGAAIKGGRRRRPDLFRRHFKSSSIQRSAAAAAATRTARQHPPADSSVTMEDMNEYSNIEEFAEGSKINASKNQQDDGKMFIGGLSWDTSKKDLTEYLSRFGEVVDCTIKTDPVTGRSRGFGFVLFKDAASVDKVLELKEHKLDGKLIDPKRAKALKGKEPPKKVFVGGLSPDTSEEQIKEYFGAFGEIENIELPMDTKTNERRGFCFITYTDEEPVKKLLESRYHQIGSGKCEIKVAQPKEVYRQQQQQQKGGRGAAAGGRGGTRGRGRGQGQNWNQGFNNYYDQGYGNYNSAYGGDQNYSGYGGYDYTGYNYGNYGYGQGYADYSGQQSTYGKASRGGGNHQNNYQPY

[5] = molecular target: T5, HeLa cell extract proteins (Homo sapiens, UniProt P55884); conditions: protein EIF3B; HeLa
T5 construct: endogenous in cells; host or cells: HeLa cell extract
T5 sequence (P55884 whole entry): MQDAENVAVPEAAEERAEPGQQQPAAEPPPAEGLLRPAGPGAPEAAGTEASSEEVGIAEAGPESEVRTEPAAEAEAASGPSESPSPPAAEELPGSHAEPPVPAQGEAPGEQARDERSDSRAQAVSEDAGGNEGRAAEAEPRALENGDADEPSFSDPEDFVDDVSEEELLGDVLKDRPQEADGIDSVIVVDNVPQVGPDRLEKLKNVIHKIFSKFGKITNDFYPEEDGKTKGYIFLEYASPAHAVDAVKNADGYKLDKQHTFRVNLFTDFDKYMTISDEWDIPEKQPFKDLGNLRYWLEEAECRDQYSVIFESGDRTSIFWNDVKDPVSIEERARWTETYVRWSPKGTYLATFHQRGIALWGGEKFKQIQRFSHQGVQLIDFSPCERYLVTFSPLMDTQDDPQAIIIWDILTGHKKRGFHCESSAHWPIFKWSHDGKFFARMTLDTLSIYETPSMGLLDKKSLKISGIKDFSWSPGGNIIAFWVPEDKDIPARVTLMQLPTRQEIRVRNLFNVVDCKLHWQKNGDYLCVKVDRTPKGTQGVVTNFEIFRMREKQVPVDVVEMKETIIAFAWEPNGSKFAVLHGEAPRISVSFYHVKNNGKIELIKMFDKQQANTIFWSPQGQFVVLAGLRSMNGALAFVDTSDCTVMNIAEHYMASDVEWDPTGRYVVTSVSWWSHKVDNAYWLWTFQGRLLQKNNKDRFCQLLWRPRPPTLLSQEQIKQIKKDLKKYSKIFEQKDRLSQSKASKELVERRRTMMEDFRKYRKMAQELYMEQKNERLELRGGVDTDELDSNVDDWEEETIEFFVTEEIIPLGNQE

[6] = molecular target: T6, HeLa cell extract proteins (Homo sapiens, UniProt Q8WTW3); conditions: protein COG1; HeLa
T6 construct: endogenous in cells; host or cells: HeLa cell extract
T6 sequence (Q8WTW3 1-980): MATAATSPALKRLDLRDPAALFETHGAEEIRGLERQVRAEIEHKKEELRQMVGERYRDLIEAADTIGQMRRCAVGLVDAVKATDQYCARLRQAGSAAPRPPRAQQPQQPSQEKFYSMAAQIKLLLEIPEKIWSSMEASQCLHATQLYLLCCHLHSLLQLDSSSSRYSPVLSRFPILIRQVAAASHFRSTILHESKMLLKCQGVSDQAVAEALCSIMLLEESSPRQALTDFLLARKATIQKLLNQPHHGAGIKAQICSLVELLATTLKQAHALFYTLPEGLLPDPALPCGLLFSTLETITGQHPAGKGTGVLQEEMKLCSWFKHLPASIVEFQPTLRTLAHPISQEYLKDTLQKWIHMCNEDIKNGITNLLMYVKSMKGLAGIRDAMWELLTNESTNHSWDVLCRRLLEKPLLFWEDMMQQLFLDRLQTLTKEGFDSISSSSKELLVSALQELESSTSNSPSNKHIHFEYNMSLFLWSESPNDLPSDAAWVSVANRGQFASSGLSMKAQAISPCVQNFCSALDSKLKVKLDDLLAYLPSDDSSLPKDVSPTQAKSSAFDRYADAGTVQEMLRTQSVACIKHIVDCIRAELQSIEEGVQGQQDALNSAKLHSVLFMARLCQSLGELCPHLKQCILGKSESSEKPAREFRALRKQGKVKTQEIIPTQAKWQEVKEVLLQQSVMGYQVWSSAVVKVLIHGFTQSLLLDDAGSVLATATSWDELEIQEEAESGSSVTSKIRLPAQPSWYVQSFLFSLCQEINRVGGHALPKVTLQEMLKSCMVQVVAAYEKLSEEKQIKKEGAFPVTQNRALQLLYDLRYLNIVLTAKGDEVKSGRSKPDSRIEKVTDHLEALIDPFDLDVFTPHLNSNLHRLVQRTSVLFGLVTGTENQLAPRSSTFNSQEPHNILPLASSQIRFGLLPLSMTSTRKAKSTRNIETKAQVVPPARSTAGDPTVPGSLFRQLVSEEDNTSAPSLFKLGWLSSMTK

[7] = molecular target: T7, HeLa cell extract proteins (Homo sapiens, UniProt Q00653); conditions: protein NFKB2; HeLa
T7 construct: endogenous in cells; host or cells: HeLa cell extract
T7 sequence (Q00653 1-900): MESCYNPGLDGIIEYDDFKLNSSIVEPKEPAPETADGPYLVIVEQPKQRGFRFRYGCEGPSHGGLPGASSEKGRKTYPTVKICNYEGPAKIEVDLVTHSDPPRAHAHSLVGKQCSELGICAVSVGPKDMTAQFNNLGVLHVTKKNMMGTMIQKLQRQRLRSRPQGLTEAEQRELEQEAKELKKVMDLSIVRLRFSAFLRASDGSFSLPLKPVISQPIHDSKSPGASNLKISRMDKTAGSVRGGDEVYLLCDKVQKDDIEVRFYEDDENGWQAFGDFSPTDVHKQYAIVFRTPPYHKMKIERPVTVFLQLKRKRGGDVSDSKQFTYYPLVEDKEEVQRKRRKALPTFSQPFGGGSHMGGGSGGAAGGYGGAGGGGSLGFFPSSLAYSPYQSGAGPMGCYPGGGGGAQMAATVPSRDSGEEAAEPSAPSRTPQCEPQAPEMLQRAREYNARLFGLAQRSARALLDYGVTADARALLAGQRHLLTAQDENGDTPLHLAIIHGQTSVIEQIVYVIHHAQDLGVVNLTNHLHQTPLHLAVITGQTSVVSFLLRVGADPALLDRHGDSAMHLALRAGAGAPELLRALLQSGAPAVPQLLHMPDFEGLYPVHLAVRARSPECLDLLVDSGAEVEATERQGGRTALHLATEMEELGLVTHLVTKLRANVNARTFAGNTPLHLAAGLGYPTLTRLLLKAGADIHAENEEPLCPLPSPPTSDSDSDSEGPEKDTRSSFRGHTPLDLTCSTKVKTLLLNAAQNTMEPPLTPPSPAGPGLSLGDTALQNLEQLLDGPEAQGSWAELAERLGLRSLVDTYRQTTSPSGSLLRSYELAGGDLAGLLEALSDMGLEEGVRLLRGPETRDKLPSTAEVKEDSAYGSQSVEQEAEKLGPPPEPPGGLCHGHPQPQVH

T1 sequence (O75533 whole entry): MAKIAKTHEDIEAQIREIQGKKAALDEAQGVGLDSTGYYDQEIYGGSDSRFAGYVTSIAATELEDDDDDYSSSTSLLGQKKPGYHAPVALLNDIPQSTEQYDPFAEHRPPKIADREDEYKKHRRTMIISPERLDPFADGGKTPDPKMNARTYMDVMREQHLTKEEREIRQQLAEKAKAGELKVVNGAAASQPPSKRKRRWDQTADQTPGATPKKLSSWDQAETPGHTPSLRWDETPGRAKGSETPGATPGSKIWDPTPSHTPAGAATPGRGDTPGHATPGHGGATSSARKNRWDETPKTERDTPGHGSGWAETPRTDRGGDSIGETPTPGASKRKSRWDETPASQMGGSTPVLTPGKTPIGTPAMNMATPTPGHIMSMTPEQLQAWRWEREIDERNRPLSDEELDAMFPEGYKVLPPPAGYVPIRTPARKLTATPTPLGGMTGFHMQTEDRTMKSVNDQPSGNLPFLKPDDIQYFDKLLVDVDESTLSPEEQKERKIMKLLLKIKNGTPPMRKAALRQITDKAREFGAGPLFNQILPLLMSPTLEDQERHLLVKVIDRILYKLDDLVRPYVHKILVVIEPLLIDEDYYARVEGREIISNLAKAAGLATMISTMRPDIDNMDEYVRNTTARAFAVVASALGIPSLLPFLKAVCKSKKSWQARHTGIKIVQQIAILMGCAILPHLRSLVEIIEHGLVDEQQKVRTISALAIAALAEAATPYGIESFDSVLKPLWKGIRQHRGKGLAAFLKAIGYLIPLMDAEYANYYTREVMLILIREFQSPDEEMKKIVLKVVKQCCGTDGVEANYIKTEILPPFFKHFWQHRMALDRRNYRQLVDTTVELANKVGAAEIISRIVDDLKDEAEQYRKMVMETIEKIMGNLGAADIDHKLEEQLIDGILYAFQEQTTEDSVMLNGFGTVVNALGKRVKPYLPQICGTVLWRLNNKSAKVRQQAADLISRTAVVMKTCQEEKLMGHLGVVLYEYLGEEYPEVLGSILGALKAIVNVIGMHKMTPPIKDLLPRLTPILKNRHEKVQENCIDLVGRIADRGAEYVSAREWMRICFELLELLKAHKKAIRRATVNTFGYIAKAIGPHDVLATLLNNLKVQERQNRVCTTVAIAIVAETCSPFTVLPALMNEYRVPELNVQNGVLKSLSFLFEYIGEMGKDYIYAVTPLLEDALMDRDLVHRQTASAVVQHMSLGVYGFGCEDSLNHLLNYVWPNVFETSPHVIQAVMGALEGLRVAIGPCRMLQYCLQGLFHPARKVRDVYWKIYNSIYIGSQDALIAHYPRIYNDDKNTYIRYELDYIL

| SMILES | fold changes relative to vehicle control ([1]; HeLa, protein SF3B1) | fold changes relative to vehicle control ([2]; HeLa, protein HIST1H2AD) | fold changes relative to vehicle control ([3]; protein TCEB2, HeLa) | fold changes relative to vehicle control ([4]; HeLa, captured protein HNRPDL) | fold changes relative to vehicle control [5] | fold changes relative to vehicle control [6] | fold changes relative to vehicle control [7] | also measured |
| --- | --- | --- | --- | --- | --- | --- | --- | --- |
| Nc1nc2c(c(=O)[nH]1)N(C=O)C(CNc1ccc(C(=O)N[C@@H](CCC(=O)O)C(=O)O)cc1)CN2 (stereo partly shown) [LEU, leucovorin] | 1.02 | 0.96 | 0.9 | 1.09 |  |  |  |  |
| Nc1nc2[nH]cc(CCc3ccc(C(=O)N[C@@H](CCC(=O)O)C(=O)O)cc3)c2c(=O)[nH]1 [PTX, pemetrexed] |  |  |  |  |  |  |  | fold changes relative to vehicle control [1]: 1.1; fold changes relative to vehicle control [2]: 1.03; fold changes relative to vehicle control [3]: 1.02; fold changes relative to vehicle control [4]: 1.02 |
| CCCCCCOc1ccc(Cc2cnc(N)nc2N)cc1 [compound 1] |  |  |  |  | 0.99 | 1 | 0.9 |  |
| CCCCCCOc1cccc(Cc2cnc(N)nc2N)c1 [compound 2] |  |  |  |  | 1.68 | 1.21 | 1.24 |  |
| Nc1nc2cccc(-c3ccccc3)c2n1Cc1ccc(Cl)c(Cl)c1 [compound 3] |  |  |  |  | 1.2 | 0.98 | 0.9 |  |
| NCCOCCOCC(=O)Nc1nc2ncc(CNc3ccc(C(=O)NC(CCC(=O)O)C(=O)O)cc3)nc2c(=O)[nH]1 (stereo not shown) [compound 6] | 1.16 | 1.18 | 1.43 | 1.06 |  |  |  |  |
| NCCCNc1ccc(C(=O)NC(CCC(=O)O)C(=O)O)cc1 (stereo not shown) [compound 7] | 1.07 | 0.97 | 1.1 | 1.03 |  |  |  |  |
